Source: PMC6150237, “Study of Absorption Characteristics of the Total Saponins from Radix Ilicis Pubescentis in an In Situ Single-Pass Intestinal Perfusion (SPIP) Rat Model by Using Ultra Performance Liquid Chromatography (UPLC)” (Molecules : A Journal of Synthetic Chemistry and Natural …, 2017)

Columns and labels:
[1] = Stability in outflow perfusate matrix; format: physicochemical; details: 37 °C
Experimental: The chromatographic method was validated for specificity, linearity and LOQ, accuracy and precision, extraction recovery, matrix, and stability. The validation parameters were studied using drug-free (blank) intestinal perfusate mixture that had passed through intestinal segments, and had been collected from five different rats. Specificity was evaluated by analyzing the intestinal perfusion blank and perfusion blank spiked with analytes to investigate the potential interferences of intestinal perfusate endogenous with the analytes; calibration and quality control (QC) samples were obtained by spiking mixed working standard solution in blank intestinal perfusion buffer. Calibration curves were constructed in the range of 20–1000 μg·mL^−1 for C1 (20, 40, 100, 200, 400, and 1000 μg·mL^−1), and 8.0–400.0 μg·mL^−1 for C2, C3, C4, DC1 and DC2 (8.0, 16.0, 40.0, 80.0, 160.0, and 400.0 μg·mL^−1). A weighted (1/x^2) linear least-squares linear regression method was used to determine the slope, intercept, and correlation coefficient; LOQ was determined by injection a series of standard solutions until the signal-to-noise (S/N) ratio was 10; Precision and accuracy were assessed at low, medium, and high concentration levels (40, 200, and 800 μg·mL^−1 for C1; 16, 80, and 320 μg·mL^−1 for C2, C3, C4, DC1, and DC2). Intra-day data was obtained by assaying six replicates at each concentration level in a day, and inter-day data was determined by analyzing QC samples in duplicates during three separate and successive days; The extraction recovery of the six analytes and IS from the outflow perfusate matrix was determined by comparing the mean peak areas of six replicates processed QC samples at each concentration level spiked before extraciton with those from outflow perfusate spiked after extraction; Matrix effect was assessed by comparing the mean peak areas of six replicates at each concentration level dissolved in the post-extracted intestinal perfusate matrix with those of neat standards (C1, C2, C3, C4, DC1, DC2, and IS) spiked in methanol at corresponding concentration levels; Stabilities of C1, C2, C3, C4, DC1, and DC2 in outflow perfusate matrix (12 h, 37 °C), processed samples (auto-sampler condition for 24 h), after freeze-thaw cycle and long-term cold storage (−20 °C, 14 days) were assayed by QC samples in six replicates at three concentration level.

[2] = Apparent oil-water partition coefficient, shake-flask method; format: physicochemical; details: n-octanol / phosphate buffer pH 1.2-9.0, 37 °C; Kow = log Co/(Ct−Co)
Experimental: The equilibrium partitioning of C1, C2, C3, C4, DC1, and DC2 between organic lipid and water (Kow) was determined in our study by the traditional shake-flask method (SFM). Briefly, 0.5 mL of each saponin standard working solution (100 µg·mL^−1 in water-saturated n-octanol) was accurately measured into 5 mL centrifuge tubes, and spiked with 0.5 mL of different phosphate buffer solutions (pH: 1.2, 2.0, 3.6, 5.8, 6.8, 7.4, 7.8, and 9.0), respectively. After vortex-mixing for 45 min, the tubes were kept in a temperature-stable horizontal shaking bath (37 °C) for 24 h, and then centrifuged at 13,000 rpm for 10 min. Two hundred microliters of organic supernatant solution was measured, diluted with 800 µL of methanol, and mixed well. Ten microliters of the final solution was injected into the HPLC system (detailed experimental conditions and method validation results were not shown) for determination of the drug concentration in the n-octanol phase. The Kow values of the six saponins were calculated according to the following mathematical expression:(3) Kow=logCo/Ct−Co where Ct is the total concentration of the drug, and Co is the concentration of the drug in n-octanol phase.

rat duodenum [3] = assay: SPIP of MDQ-TS with or without verapamil (P-gp inhibitor); format: in vivo; details: MDQ-TS 2.5 mg/mL; for Ka increase in comparison with non-Verapamil added group / Papp increase in comparison with non-Verapamil added group: verapamil 200 μmol·L^−1
Experimental: (§1) MDQ-TS perfusion samples at low, middle, and high concentration levels of 1.25, 2.5, and 5.0 mg·mL^−1 were prepared by separately dissolving MDQ-TS in the minimum amount of DMSO and diluted with K-R buffer solution. The amount of DMSO was 0.5% in the final perfusion solutions. C1, C2, C3, C4, DC1, and DC2 perfusion samples with the concentration equivalent to the amount contained in 2.5 mg·mL^−1 of MDQ-TS were individually prepared in the same way. Verapamil, amantadine and EDTA were directly dissolved in the MDQ-TS perfusate with terminal concentrations of 200 μmol·L^−1, 2.5 mmol·L^−1, and 2.5 mmol·L^−1, accordingly, and used for investigating the mechanisms involved for absorption.
(§2) In situ single-pass intestinal perfusion (SPIP) studies were performed using an experimental design adapted from the literature with some modifications. Briefly, male Sprague-Dawley rats weighing 180–220 g were acclimatized for at least one week before the experiment, and fasted for 18 h with free access to water before the perfusion experiment. Rats were anesthetized with an intraperitoneal injection of urethane (30 mg·kg^−1 body weight), and kept on a homeothermic blanket to maintain normal body temperature. The abdomen was opened with a midline longitudinal incision, and three segments of rat intestine (duodenum, jejunum, and ileum) of approximately 10 cm each were carefully cannulated on two ends with plastic tubing. Initially, the perfusion solution free of drug (37 °C) was pumped by peristaltic pump (BT100-1F, Longer Pump Co., Baoding, China) through the cannulated segments at a flow rate of 1 mL/min for approximately 30 min in order to clean out any residual debris. Secondly, the perfusion solution containing a known concentration of substance (C1, C2, C3, C4, DC1, DC2, and MDQ-TS) was perfused at 37 °C through the intestinal lumen at a constant flow rate of 0.2 mL/min. The first 20 min of period corresponds to steady state, i.e., when the substance is in equilibrium with the intestinal membrane. After steady state, samples were collected from distal portion of duodenum, jejunum and ileum at 10 min intervals (0–10, 10–20, 20–30, 30–40, 40–50, 50–60 min) in pre-weighted vials. Samples were immediately frozen at −20 °C until analysis by validated UPLC. During the experiment, care was taken to avoid disturbance of the circulatory system and the exposed segment was covered with a piece of sterilized gauze to keep it warm and moist by frequent application of warm (37 °C) saline. The intestinum tenue maintained its viability and intact state without disrupting the blood supply throughout the experimental period. Finally, animals were sacrificed after depth anesthesia by intraperitoneal injection of urethane, according to protocols for euthanasia in experimental animals. After death, the intestinal segment was removed for measurements of length and inside diameter.
(§3) The net water flux in the in situ perfusion studies (water absorption and efflux in the intestinal segment) was determined by gravimetric method. The effective absorption rate constant (Ka) and effective apparent permeability (Papp) of compounds in the intestinal segments were calculated according to the following mathematical expression:(1) Ka=(1−CoutQout/CinQin)Q/V (2) Papp=−Qln(CoutQout/CinQin)/2πrl where Cin and Cout are the concentration of test drug in the effluent perfusate through the inlet and outlet tube (μg·mL^−1), respectively. Qin and Qout represent the inlet and outlet volume of effluent perfusate (mL), respectively. Q is the volume flow rate of perfusion (mL·h^−1). V is the volume of the intestinal segment concerned (mL). 2πrl is the area of the mass transfer surface of intestinal segment concerned (cm^2). […]

rat duodenum [4] = assay: SPIP of MDQ-TS with or without EDTA (tight junction modulator); format: in vivo; details: MDQ-TS 2.5 mg/mL, EDTA 2.5 mmol·L^−1
Experimental: as §1, §2, §3

Molecule	stability in outflow perfusate matrix [1]	apparent oil-water partition coefficient (Kow) [2]	Ka increase in comparison with non-Verapamil added group (rat duodenum [3])	Ka increase in comparison with non-EDTA added group (rat duodenum [4]) [fold]	Papp increase in comparison with non-EDTA added group (rat duodenum [4])	Papp increase in comparison with non-Verapamil added group (rat duodenum [3])	intestinal absorption in Verapamil added group (rat duodenum [3]; verapamil 200 μmol·L^−1, result in words)
C[C@@H]1CC[C@]2(C(=O)O)CC[C@]3(C)C(=CC[C@@H]4[C@@]5(C)CC[C@H](O)[C@@](C)(C(=O)O)[C@@H]5CC[C@]43C)[C@@H]2[C@]1(C)O [C1, ilexgenin A]	at least 12 h	−1 to 2	about 1.5 fold	~1.6	about 1.7 fold	–	–
CC1CCC2(C(=O)OC3OC(CO)C(O)C(O)C3O)CCC3(C)C(=CCC4C5(C)CCC(O)C(C)(C(=O)O)C5CCC43C)C2C1(C)O (stereo not drawn) [C2, ilexsaponin A1]	at least 12 h	−1 to 2	~4.2 fold	~1.6	~1.2 fold	about 2.3 fold	–
C[C@H]1CC[C@]2(C(=O)O)CC[C@]3(C)C(=CC[C@@H]4[C@@]5(C)CC[C@H](O[C@@H]6OC[C@@H](O)[C@H](O)[C@H]6O[C@@H]6O[C@H](CO)[C@@H](O)[C@H](O)[C@H]6O)C(C)(C)[C@@H]5CC[C@]43C)[C@@H]2[C@]1(C)O [C3, ilexsaponin B1]	at least 12 h	−1 to 2	~1.2 fold	~1.5	~1.9 fold	~1.4 fold	–
C[C@@H]1O[C@@H](O[C@H]2[C@H](O[C@H]3[C@H](O[C@H]4CC[C@]5(C)[C@H]6CC=C7[C@H]8[C@](C(=O)O)(CC[C@H](C)[C@@]8(C)O)CC[C@@]7(C)[C@]6(C)CC[C@H]5C4(C)C)OC[C@@H](O)[C@@H]3O)O[C@H](CO)[C@@H](O)[C@@H]2O)[C@H](O)[C@H](O)[C@H]1O [C4, ilexsaponin B2]	at least 12 h	−1 to 2	about 1.5 fold	~1.5	~1.5 fold	–	–
C[C@@H]1O[C@@H](O[C@H]2[C@H](O[C@H]3[C@H](O[C@H]4CC[C@]5(C)[C@H]6CC=C7[C@H]8[C@](C(=O)O[C@@H]9O[C@H](CO)[C@@H](O)[C@H](O)[C@H]9O)(CC[C@H](C)[C@@]8(C)O)CC[C@@]7(C)[C@]6(C)CC[C@H]5C4(C)C)OC[C@@H](O)[C@@H]3O)O[C@H](CO)[C@@H](O)[C@@H]2O)[C@H](O)[C@H](O)[C@H]1O [DC2, ilexoside O]	at least 12 h	−1 to 2	–	~3.0	~2.1 fold	–	could not be absorbed by the small intestine at all
ilexsaponin B3 [DC1]	at least 12 h	−1 to 2	~2.9 fold	~1.4	~1.4 fold	~3.4 fold	–
